Experiment [1] has as its system overweight dogs. Briefly: Whole body composition by Dual Energy X-ray Absorptiometry (DEXA). Type of experiment: in vivo, beagle dogs. From the text:
(§1) Thirty adult ovariohysterectomized female beagle dogs were used to study the effects of L-carnitine supplementation on weight loss. All of the animals were current on their vaccination and parasite prevention program. The dogs were housed individually in oversize pens and identified by a unique ear tattoo. Fresh water was provided ad libitum during the entire study period. Food intake was adjusted as necessary to achieve the desired weight for the study period.
(§2) At the initiation of the maintenance phase of the study (baseline or day 0), the dogs were randomized based on body weight into three dietary treatment groups of ten dogs each with a three day feed transition period starting on day 0. Each treatment group was randomly assigned to one of three low-fat diets (Table 1). The only difference between diets was the addition of 0, 50, or 100 ppm supplemental L-carnitine. No differences in the initial body weight or body condition score existed between groups.
(§3) During the twelve-week weight loss phase of the study, the same experimental diets were offered as during the maintenance phase. However, the food intake was decreased to produce approximately 1.5 to 2.5% body weight loss per week. Exact amounts of experimental diets were fed to the dogs at approximately the same time each day, and remaining feed amounts were weighed the following day. Food intake and body weight were monitored daily and weekly, respectively. Whole body composition using the Dual Energy X-ray Absorptiometer (DEXA), and blood samples for CBC and chemistry were collected periodically during the study. Whole Body Composition by Dual Energy X-ray Absorptiometry. The dogs were scanned with a Hologic QDR-2000 Plus Dual-Energy X-Ray Absorptiometry (DEXA) bone densitometer, supported with Hologic MXA software, version 8.0. All dogs were anesthetized and placed on the Dual Energy X-ray Absorptiometry (DEXA) table in dorsal recumbency, with legs stretched caudally to avoid overlap of the legs over the body. The dogs were scanned using the Enhanced Array Whole Body software. The body composition measurements recorded consisted of surface area (cm^2), bone mineral content (BMC), bone mineral density (BMD), lean mass, fat content, percent fat, and estimated body weight. All measurements were reported in grams except for percent fat and area (cm^2). Percent lean and percent BMC were calculated from the lean mass, BMC, and estimated body weight data from the DEXA results.
The whole body composition was performed concomitantly and under anesthesia. The anesthetic regimen consisted of Atropine (0.01 mg/lb) as a pre-anesthetic, the combination Xylazine/Telazol/Torbugesic (0.8/6.7/0.13 mg/kg) as induction and Isoflurane (Aerrane, Ohmeda Pharmaceutical Products, Liberty Corner, N.J.) as a maintenance agent using a nose cone.
A repeated measure classification analysis of variance was used to study “Treatment” and time dependent “Treatment×Time” effects (Gill and Hafs, J. Animal Sci. 33(2):331(1971)). The variables from the complete blood count, blood chemistry, body composition and body weights were studied using this analysis. All F-tests and mean separations using the Least Square Difference (LSD) used 0.05 Type 1 Error rate. One degree of freedom comparisons between experimental diets B versus C (comparison 1) and A versus B and C (comparison 2) were computed for the body composition and body weight variables. Comparisons 1 and 2 form an orthogonal set. An a of 0.05 was used to test for non-zero value of the mean of the two groups defined per contract. The “Treatment×Time” interaction was investigated by computing a test for linear, quadratic, and cubic response over time for each treatment. Then a test of parallelism, equal quadric response and equal cubic response was done to test equality of trend in response among treatments. An α of 0.05 for the F-tests was used in all cases. All computations were done using SAS (statistical analysis system) software (1989).

For experiment [2], the system named is overweight dogs. Briefly: Body weight and food intake of overweight dogs fed low-fat diets with supplemental L-carnitine. Type of experiment: in vivo, beagle dogs. The conditions noted are these: for average voluntary consumption of the diet: seven weeks of feeding; for body weight change: seven weeks ad libitum, P<0.05 from control.
Excerpt: as §1
Three dietary treatments were evaluated. The study consisted of three periods: weight gain, maintenance, and weight loss. During the eleven-week weight gain period, all dogs were fed a single diet Eukanuba Veterinary Diets® Nutritional Recovery Formula™ which contains 36.1 wt % protein, 26.1 wt % fat, and 2.1 wt % crude fiber) ad libitum.
as §2
The dogs were on 100% experimental diet on day 3 and were fed ad libitum during the seven-week maintenance phase of the study.
as §3
A repeated measure classification analysis of variance was used to study “Treatment” and time dependent “Treatment×Time” effects (Gill and Hafs, J. Animal Sci. 33(2):331(1971)). The variables from the complete blood count, blood chemistry, body composition and body weights were studied using this analysis. All F-tests and mean separations using the Least Square Difference (LSD) used 0.05 Type 1 Error rate. […]

[3] abbreviates: 50 ppm supplemental carnitine, Week 0.
Setting [4] is: 50 ppm supplemental carnitine, Week 7.
Where [5] appears, read: 100 ppm supplemental carnitine, Week 0.
Setting [6] is: 100 ppm supplemental carnitine, Week 7.

As for `C[N+](C)(C)C[C@H](O)CC(=O)[O-]` [L-carnitine], the “lean body mass compared with no supplementation” value in experiment [1] (50 and 100 ppm, FIG. 6) is on record as “leaner body mass”. Besides, the “body fat loss compared to no (0 ppm) supplementation” value in experiment [1] (50 and 100 ppm, difference day 0 to day 49, day 92, day 133 as percentage of day 0, FIG. 5) is given as “more body fat loss (P<0.05)”. In experiment [1] (50 and 100 ppm, difference day 0 to day 49 as percentage of day 0, FIG. 4), the “body fat loss compared to 0 ppm supplementation” value was “more body fat loss (P<0.05)”. In addition, the “BMC (bone mineral content) as percent of total body mass” value in experiment [1] (setting [3]) came out at 1.6%; in experiment [1] (setting [4]), 1.7%; in experiment [1] (setting [5]), 1.6%; in experiment [1] (setting [6]), 1.6%. The “Fat mass as percent of total body mass” value in experiment [1] (setting [3]) is reported as 42.4%; in experiment [1] (setting [4]) it was 37.8%; in experiment [1] (setting [5]), 42.5%; in experiment [1] (setting [6]) it was 38.9%. The “LBM (lean body mass) as percent of total body mass” value in experiment [1] (setting [3]) is 56.0%; in experiment [1] (setting [4]), 60.5%; in experiment [1] (setting [5]) it was 55.9%; in experiment [1] (setting [6]) it was 59.5%. Also, in experiment [2] (50 and 100 ppm, FIG. 7, P<0.05), the “total weight loss per total food intake compared with no supplementation” value is on record as “greater total weight loss per total food intake”. In addition, the “average voluntary consumption of the diet” value is given as 1574 g/week in experiment [2] (50 ppm carnitine) and 1567 g/week in experiment [2] (100 ppm carnitine). Besides, the body weight change is listed as −6.4% in experiment [2] (50 ppm supplemental carnitine in low-fat diet) and −5.7% in experiment [2] (100 ppm supplemental carnitine in low-fat diet).

Values taken from US20010000786A1, “Product for promoting weight loss in overweight dogs” (priority 1998, published 2001).
